Assay [1] concerns the target mitochondrial RNA-polymerase (POLRMT) (Mus musculus, UniProt Q8BKF1). The assay is described as follows: Homogeneous TR-FRET assay for mitochondrial transcription activity. Format: biochemical. Particulars: homogeneous TR-FRET assay according to Example 4; activity class. In short, it runs like this:
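TR-FRET read-out (340 nm excitation, 665 nm emission) of a 407 bp transcript captured by Eu-streptavidin/biotin donor and ATTO647N acceptor DNA probes after EDTA stop. Transcription ran 2 h at RT with 500 μM […], mouse POLRMT/TFAM/TFB2M and LSP-plasmid template, after 10 min compound preincubation (10 μM or dilution series).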
A general note: In TR-FRET formats the signal depends on donor and acceptor labels being close together.

Another assay has as its system NCI-H1299 (lung). Briefly: CellTiter GLO viability assay, NCI-H1299. Format: cell-based. As to conditions: Homo sapiens, 144 h, read-out: IC50 (μM) incubation time 144 h. On the procedure:
(§1) The CellTiter-Glo Luminescent Cell Viability Assay (Promega) is a homogeneous method of determining the number of viable cells in culture. It is based on quantification of ATP, indicating the presence of metabolically active cells.
(§2) Cells were seeded on day 1 at cell numbers that assure assay linearity and optimal signal intensity. After incubation for 3 h in humidified chambers at 37° C./5% CO2 compounds/DMSO were added at different concentrations. […] Cells treated with the compound vehicle DMSO were used as positive controls and cells treated with 10 μM Staurosporine served as negative controls. […] Thereon, mixture and assay plates were equilibrated at room temperature for 20 min. Equal volumes of the reagent-medium-mixture was added to the volume of culture medium present in each well.
(§3) The plates were mixed at ˜200 rpm for 2 minutes on an orbital shaker. The microplates were then incubated at room temperature for 10 minutes for stabilization of the luminescent signal. Following incubation the luminescence is recorded on a Victor microplate reader (Perkin Elmer) using 200 ms integration time. The data were then analyzed with Excel using the XLFIT Plugin (dose response Fit 205) for IC50-determination. As quality control the Z′-factor was calculated from 16 positive and negative control values. Only assay results showing a Z′-factor≥0.5 were used for further analysis.
In general terms: In ATP-based viability assays light output follows the ATP content of the culture.

The test system of another assay is NCI-H23 (lung). The assay is described as follows: CellTiter GLO viability assay, NCI-H23. Format: cell-based. The procedure:
as §1, §2, §3

In another assay the test system is SW48 (colon). The assay is described as follows: CellTiter GLO viability assay, SW48. Type of assay: cell-based. As to conditions: Homo sapiens, 144 h, read-out: IC50 (μM) incubation time 144 h. The procedure:
as §1, §2, §3

A further assay has as its system SW948 (colon). Briefly: CellTiter GLO viability assay, SW948. Type of assay: cell-based. As to conditions: Homo sapiens, 144 h, read-out: IC50 (μM) incubation time 144 h. On the procedure: as §1, §2, §3

Bounds are passed on as bounds.

mitochondrial RNA-polymerase (POLRMT), sequence (Q8BKF1 42-1207): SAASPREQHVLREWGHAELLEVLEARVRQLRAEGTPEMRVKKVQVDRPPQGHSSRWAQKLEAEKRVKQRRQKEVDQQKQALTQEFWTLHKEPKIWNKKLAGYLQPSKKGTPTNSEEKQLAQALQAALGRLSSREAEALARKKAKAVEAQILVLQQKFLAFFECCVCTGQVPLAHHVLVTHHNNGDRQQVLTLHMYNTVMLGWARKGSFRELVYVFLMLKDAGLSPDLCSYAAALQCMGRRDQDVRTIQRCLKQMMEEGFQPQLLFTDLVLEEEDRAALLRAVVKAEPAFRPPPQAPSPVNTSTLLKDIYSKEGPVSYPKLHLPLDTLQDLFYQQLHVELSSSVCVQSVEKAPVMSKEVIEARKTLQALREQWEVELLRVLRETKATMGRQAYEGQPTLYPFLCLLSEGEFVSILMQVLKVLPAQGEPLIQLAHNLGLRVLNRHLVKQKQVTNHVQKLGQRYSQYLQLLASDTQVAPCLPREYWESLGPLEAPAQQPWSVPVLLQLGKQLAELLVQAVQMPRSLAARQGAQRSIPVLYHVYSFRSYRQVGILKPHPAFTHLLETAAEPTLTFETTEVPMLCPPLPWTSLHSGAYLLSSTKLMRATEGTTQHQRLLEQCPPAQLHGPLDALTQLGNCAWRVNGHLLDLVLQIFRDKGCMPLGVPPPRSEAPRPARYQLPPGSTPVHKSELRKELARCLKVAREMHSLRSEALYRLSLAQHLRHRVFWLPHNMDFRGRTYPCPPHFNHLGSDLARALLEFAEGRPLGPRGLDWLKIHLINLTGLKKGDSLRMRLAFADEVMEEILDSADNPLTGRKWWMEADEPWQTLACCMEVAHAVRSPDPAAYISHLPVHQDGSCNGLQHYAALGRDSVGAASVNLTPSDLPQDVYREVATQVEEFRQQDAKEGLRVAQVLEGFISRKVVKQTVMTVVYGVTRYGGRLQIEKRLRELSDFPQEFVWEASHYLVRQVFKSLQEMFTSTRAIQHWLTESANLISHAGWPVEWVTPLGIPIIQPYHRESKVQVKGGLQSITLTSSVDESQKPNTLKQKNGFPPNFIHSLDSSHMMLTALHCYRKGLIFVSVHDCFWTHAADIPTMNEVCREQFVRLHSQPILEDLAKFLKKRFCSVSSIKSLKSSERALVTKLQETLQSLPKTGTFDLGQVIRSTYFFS

As usually defined, the IC50 is the point on the concentration scale where inhibition reaches its midpoint. With `C[C@@H](Oc1ccc2c(-c3ccc(F)cc3Cl)cc(=O)oc2c1)C(=O)N1CCC[C@H](C(=O)O)C1` [Compound 14, (3S)-1-[(2R)-2-[4-(2-chloro-4-fluoro-phenyl)-2-oxo-chromen-7-yl]oxypropanoyl]piperidine-3-carboxylic acid], the IC50 is less than 20 nM in assay [1]; 0.1 to 1 µM in the assay on NCI-H1299 (lung); 1 to 10 µM in the assay with NCI-H23 (lung) (Homo sapiens, NCI-H23 (lung), 144 h, read-out: IC50 (μM) incubation time 144 h); 0.1 to 1 µM in the assay on SW48 (colon); 0.1 to 1 µM in the assay with SW948 (colon). The “sensitivity of the cell line (in words)” value in the assay with NCI-H23 (lung) (NCl-H23) was “moderate sensitivity”.
